Test results reported in ChEMBL document CHEMBL1770052, “Pharmacophore elucidation for a new series of 2-aryl-pyrazolo-triazolo-pyrimidines as potent human A3 adenosine receptor antagonists” (Bioorg Med Chem Lett, 2011).

Biological target: T1, Adenosine receptor A3 (Homo sapiens, UniProt P0DMS8)
T1 sequence (P0DMS8 whole entry): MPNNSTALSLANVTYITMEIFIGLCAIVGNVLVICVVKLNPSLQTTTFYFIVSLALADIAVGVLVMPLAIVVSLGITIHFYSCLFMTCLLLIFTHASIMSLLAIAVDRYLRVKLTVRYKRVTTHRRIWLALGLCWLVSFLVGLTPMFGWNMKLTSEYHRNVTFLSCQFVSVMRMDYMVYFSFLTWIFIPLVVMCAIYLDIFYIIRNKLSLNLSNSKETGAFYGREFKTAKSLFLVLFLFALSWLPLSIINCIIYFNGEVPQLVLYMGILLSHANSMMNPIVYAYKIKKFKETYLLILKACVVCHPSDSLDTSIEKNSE
Assay: Antagonist activity at human adenosine A3 receptor
Assay type: functional

Row | SMILES | Ki [nM]
1 | O=C(Cc1ccccc1)Nc1nc2nn(CCc3ccccc3)cc2c2nc(-c3ccc(Cl)cc3)nn12 | 8.48
2 | Cn1cc2c(nc(NC(=O)N[n+]3ccccc3)n3nc(-c4ccco4)nc23)n1 | 0.01
